Data on ten compounds can be found in US6861524B2, “Acyl and sulfonyl derivatives of 6,9-disubstituted 2-(trans-1,4-diaminocyclohexyl)-purines and their use as antiproliferative agents” (Aventis Pharmaceuticals Inc., priority 2000, dated 2005).

The target of data set [1] is cdk4/cyclin D1 (Homo sapiens, UniProt P11802). In words: Cyclin-dependent kinase assay, cdk4/cyclin D1 (GST-pRb substrate). It is filed as biochemical. To be noted: inhibition of cyclin D1/CDK 4 enzyme activity.
The target in data set [2] is cdk1/cyclin B (Homo sapiens, UniProt P06493). In words: Cyclin-dependent kinase assay, cdk1/cyclin B (Histone H1 substrate).
Procedure: (§7) The IC50 values for cdk1/cyclin B, cdk2/cyclin E, and cdk4/cyclin D1 inhibition are determined using the following methods:
The cdk1 sequence (accession number Y00272) is amplified by PCR and cloned into the BamHI and SalI sites of pFASTBAC1 (Life Technologies).
The cyclin B1 sequence (accession number M25753) is amplified by PCR and cloned into the BamHI and SalI sites of pFASTBAC1 (Life Technologies).
(§8) The cDNA for each of the cyclin-dependent kinases (CDK) and the corresponding cyclins are cloned into the baculovirus expression vector, pFASTBAC1 (Life Technologies). The sequences of each of the constructs are confirmed by automated fluorescent DNA sequencing according to the manufacture's protocol (Perkin Elmer/Applied Biosystems Inc).
(§9) The insect cell (Sf9) expression is optimized for each of the CDK/cyclin pairs according to the manufacturer's protocols (Life Technologies).
(§10) The viruses are added to the cells and the culture is incubated at 27° C. for the desired time. The cells are harvested by centrifugation at 3000 rpm for 10 minutes. The cells are snap frozen on dry ice and stored at −80° C.
(§11) Cell extracts are made following a standard procedure. The cell pellet is resuspended in lysis buffer (50 mM HEPES, pH 8.0, 10 mM MgCl2, 1 mM DTT, 2.5 mM EGTA, 1 mM EDTA, 10 mM β-glycerophosphate, 1 mM sodium vanadate, 1 mM sodium fluoride, 1×Protease inhibitor cocktail). The cells are lysed using the microfluidizer (Microfluidics) for 20 minutes. Cell debris is removed by centrifugation at 100,000×g. The cell extracts are aliquoted in 1 ml aliquots, frozen on dry ice, and stored at −80° C.
The kinase reactions are performed following a standard procedure. The enzyme and inhibitor are diluted in kinase buffer (50 mM HEPES, pH 8.0, 10 mM MgCl2, 2.5 mM EGTA, 10 mM β-glycerophosphate, 1 mM sodium vanadate, 1 mM sodium fluoride, and 1 mM DTT) and pre-incubated for 30 minutes. […] The cdk1 enzyme activity is assayed using Histone H1 (Sigma) in the presence of 10 μM ATP for 30 min at room temperature. The reactions are terminated by the addition of 50 μL of 10 mM cold ATP to stop the reactions. The reactions are transferred to a pre-soaked 96-well multi-screen plate containing 30 μL of 100% TCA per well. After incubation for one hour at room temperature, the plates are washed twice with 200 μl of 20% TCA, followed by 200 μl of 10% TCA and finally with 200 μl of 5% TCA. After drying the plates at room temperature, the filter plates are placed in adapter plates (Packard) and 40 μl of Microscint-O® (Packard) is added to each well. Top Seal A film is used to cover the plates before counting in a Top Count Scintillation Counter.
The % remained activity of the indicated Cdk/cyclin kinase complex in the presence of inhibitor is calculated by the ratio of cpm in the presence of inhibitor to cpm in the absence of inhibitor (% Activity=vi/vo×100%).
Data set [3] concerns MDA-MB-435. Briefly: In vitro proliferation assay (MTT), MDA-MB-435. It is filed as cell-based, human. The note with it: mean (SD, n) where given, read-out: MB-435 Breast (IC50 μM). How it is done: (§1) The proliferation of tumor cells can be measured using a tetrazolium salt-based assay known as the MTT (3-[4,5-Dimethylthiazol-2-yl]-2,5-diphenyltetrazolium bromide) assay. […] For the assay, the cell lines are plated onto 96 well plates at 1000 to 2500 cells/well (depending on the properties of the individual cell lines), left to attach and recover overnight. […] After 3 days, the cells are incubated with MTT dye (3-[4,5-Dimethylthiazol-2-yl]-2,5-diphenyltetrazolium bromide, Sigma #M5655, 10 mg/ml in Hank's Buffered Saline) to estimate the amount of live cells remaining vs. concentration for the test compounds. […] The MTT and culture medium is then removed from the cultures and 200 μl of DMSO is added to solubilize the dye from the cell layer. The absorbance at 570 nm is determined for each culture using a Spectramax plate reader (Molecular Devices).
(§2) IC50s were determined from the raw data from either the MTT or SRB assays.
(§3) All of the cell lines were obtained from American Type Tissue Collection, with the ATCC accession number in parentheticals. MCF-7 and MDA-MB-231 cells were grown in improved minimum essential medium (Biofluids) without phenol red, supplemented with 5% fetal bovine serum, 0.01 mg/ml gentamicin and 3 mM L-glutamine.

For data set [4], the system named is PC-3. Briefly: In vitro proliferation assay (MTT), PC-3. Format: cell-based, human. How it is done:
as §1, §2, §3

Data set [5] has as its target cdk2/cyclin E (Homo sapiens, UniProt P24941). In words: Cyclin-dependent kinase assay, cdk2/cyclin E (GST-pRb substrate). To be noted: read-out: CDK2 IC50; inhibition of cyclin E/CDK 2 enzyme activity.
Procedure: as §7
The cdk2 sequence (accession number X62071) is amplified by PCR and cloned into the SpeI and XhoI sites of pFASTBAC1 (Life Technologies). […] This primer would anneal in the 3′ untranslated sequence.
The cyclin E sequence (accession number M73812) is amplified by PCR and cloned into the XbaI and XhoI sites of pFASTBAC1 (Life Technologies).
as §8, §9, §10, §11
The kinase reactions are performed following a standard procedure. […]
The transformed bacteria are grown overnight to saturation, then diluted in YT broth and incubated at 37° C. for 2 h. […] The beads are washed with kinase buffer and then quantitated of Coomassie blue-stained proteins separated by SDS-PAGE using a protein standard of known concentration.
The nature of data set [6]: Red blood cell binding (RBC to plasma ratio), mouse whole blood. To be noted: 30 minutes at 37° C., nominal 500 ng/ml, hematocrit 0.41. It is filed as in vitro ADME. The procedure: (§4) Compounds, including one positive control, are assessed for red blood cell (RBC) uptake, using a modified procedure based on the protocol reported in Sun, J. X. S., et al. High-performance liquid chromatographic analysis, plasma protein binding and red blood cell partitioning of phenprobamate. Biopharmaceutics and Drug Disposition, 8 (1987) 341-351.
(§5) Briefly, RBC uptake is evaluated by comparison of the levels in spiked plasma (n=3) and plasma isolated from spiked whole blood (n=3). Compounds are incubated with human and mouse whole blood, respectively, for 30 minutes at 37° C. using a nominal concentration of 500 ng/ml. Following centrifugation, the plasma is removed and submitted for analysis. Each compound is also spiked into blank plasma at a nominal concentration of 500 ng/ml, and submitted for analysis. Levels in the two plasma samples (Cp′ and Cp in the equation below) and the blood hematocrit are used to determine the red blood cell to plasma ratio (Crbc/Cp). [formula] In equation 1, Cp′ is the level of drug in the spiked “blank” plasma, Cp is the level of drug in the plasma of spiked whole blood, and H is the hematocrit. The hematocrit values are determined as 0.4 for human whole blood and 0.41 for mouse whole blood. The samples are analyzed with ESI LC/MS, using positive ion detection with an internal standard.
(§6) The red blood cell to plasma ratio is determined for each compound using equation 1. Tables 6 and 7 summarize the respective mean Crbc/Cp values and standard deviations for mouse and human whole blood, respectively, in descending order based on the red blood cell to plasma ratio, where “*” denotes Positive Control, and “ND” denotes Not Determined. MDL 108552 is included as a positive control for red blood cell uptake.

Data set [7] can be described thus: Red blood cell binding (RBC to plasma ratio), human whole blood. To be noted: 30 minutes at 37° C., nominal 500 ng/ml. Format: in vitro ADME. The procedure:
as §4, §5, §6

The nature of data set [8]: Plasma pharmacokinetics in mice after single intravenous cassette doses. To be noted: mice, Cassette #3, single 15 mg/kg iv cassette dose (3 mg/kg/compound).
Procedure: Male mice are given single intravenous cassette doses of CDK inhibitor compounds.
A single intravenous cassette dose (18 or 15 mg/kg free base) is administered. For each compound, this is equivalent to a dose of approx. 3 mg/kg free base. […] The dose is administered at a volume of 10 ml/kg (total volume of approximately 0.25 ml/animal).
Male mice (Hsd:ICR (CD-1® SD®), Harlan), each weighing approximately 20-30 g at the start of the study. […] Water is available ad libitum throughout the study.
A single cassette dose of 5-6 compounds is administered by bolus injection into the tail vein over a 10-15-second period. […] Whole blood (approximately 0.6 ml/sample) is obtained by cardiac puncture and transferred to 3 ml glass tubes containing 45 U sodium heparin.
Sample Processing: Plasma: Whole blood is centrifuged at approximately 3,200 rpm for 10 min at approximately 5° C. and the plasma (approx. 0.3 ml/sample) is transferred to chilled plastic vials and stored at approx. −70° C. until bioanalysis.
Sample Analysis: Concentrations of each test article in plasma are quantitated by a non-validated method based on LC/MS using the following protocol.
Samples are removed from the freezer, allowed to thaw at room temperature, and vortexed to insure complete homogenization prior to sample manipulation. Samples are then prepared according to the following scheme: • 1. transfer 48 μL of plasma (blank mouse sample) into a 12×75 mm test tube. • 2. add 12 μL of working standard to the blank plasma for standard curve preparation. • 3. […] Inject 25 μL on LC/MS. Chromatographic Conditions:
Data Analysis: Concentrations of Compounds in plasma of individual animals are determined by bioanalytics. […] Statistical analyses are limited to simple expressions of variation (mean and standard deviation). The plasma AUC (area-under-curve) is determined by the linear trapezoidal rule. […] All PK parameters are determined by noncompartmental methods using WinNonlin version 3.0 (Pharsight Corp).
The following information is based on a graph of the semi-log of the plasma concentration in ng/ml versus collection time in hours. • “Cmax” represents the maximum plasma concentration. • “t1/2” represents the half-life of the compound. • “AUC0-∞” represents the calculated area under the curve. • “AUC % Extrap(obs.)” represents the extrapolated area under the curve. • “Cls” is the clearance rate.

Structures can show the parent of a compound that is named as a salt. Where two headings read alike, the source gives them in different places.

Sequence of cdk4/cyclin D1 (P11802 whole entry): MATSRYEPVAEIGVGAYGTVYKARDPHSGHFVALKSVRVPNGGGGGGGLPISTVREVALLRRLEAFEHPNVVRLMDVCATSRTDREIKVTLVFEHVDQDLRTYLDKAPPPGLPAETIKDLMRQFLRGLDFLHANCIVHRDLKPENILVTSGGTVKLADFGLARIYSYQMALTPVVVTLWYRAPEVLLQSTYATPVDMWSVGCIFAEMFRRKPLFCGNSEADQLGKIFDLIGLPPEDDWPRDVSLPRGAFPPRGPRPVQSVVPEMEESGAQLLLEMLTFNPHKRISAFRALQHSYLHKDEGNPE
Sequence of cdk4/cyclin D1 (P24385 whole entry partner): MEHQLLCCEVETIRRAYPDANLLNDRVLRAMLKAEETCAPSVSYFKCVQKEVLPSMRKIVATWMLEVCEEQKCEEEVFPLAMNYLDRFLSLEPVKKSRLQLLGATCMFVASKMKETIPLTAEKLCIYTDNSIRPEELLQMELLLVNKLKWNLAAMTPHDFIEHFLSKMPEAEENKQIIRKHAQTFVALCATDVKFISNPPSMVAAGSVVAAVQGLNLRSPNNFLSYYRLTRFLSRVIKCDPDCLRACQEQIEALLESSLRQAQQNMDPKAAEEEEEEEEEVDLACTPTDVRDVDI
Sequence of cdk1/cyclin B (P06493 whole entry): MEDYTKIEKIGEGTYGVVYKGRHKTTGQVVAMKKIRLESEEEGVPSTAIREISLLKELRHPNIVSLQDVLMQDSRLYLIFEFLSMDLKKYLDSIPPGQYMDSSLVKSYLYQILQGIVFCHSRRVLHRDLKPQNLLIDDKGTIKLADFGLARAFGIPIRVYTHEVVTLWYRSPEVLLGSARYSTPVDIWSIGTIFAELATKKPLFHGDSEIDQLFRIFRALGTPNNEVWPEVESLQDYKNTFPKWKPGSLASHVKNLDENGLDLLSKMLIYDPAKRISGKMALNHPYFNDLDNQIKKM
Sequence of cdk1/cyclin B (P14635 whole entry partner): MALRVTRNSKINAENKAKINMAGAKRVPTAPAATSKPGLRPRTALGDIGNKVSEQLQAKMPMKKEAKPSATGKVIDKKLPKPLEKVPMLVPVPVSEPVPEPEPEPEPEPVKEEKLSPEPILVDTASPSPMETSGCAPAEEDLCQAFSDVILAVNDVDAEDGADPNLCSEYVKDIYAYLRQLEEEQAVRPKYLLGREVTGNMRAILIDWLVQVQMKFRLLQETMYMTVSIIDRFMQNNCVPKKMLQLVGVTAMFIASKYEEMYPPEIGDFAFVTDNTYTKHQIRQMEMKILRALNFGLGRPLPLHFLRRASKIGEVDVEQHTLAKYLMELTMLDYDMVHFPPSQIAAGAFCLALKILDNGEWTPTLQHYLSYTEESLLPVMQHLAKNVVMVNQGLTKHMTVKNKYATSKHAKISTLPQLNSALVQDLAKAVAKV

For orientation: IC50 means the concentration at which inhibition is half-maximal. As for `CCCCc1ccc(C(=O)N2CCC(Nc3nc(N[C@H]4CC[C@H](N)CC4)nc4c3ncn4C3CCCC3)CC2)cc1` [Compound 21, trans-1-{4-[2-(4-Amino-cyclohexylamino)-9-cyclopentyl-9H-purin-6-ylamino]-piperidin-1-yl}-1-(4-butyl-phenyl)-methanone], the IC50 in data set [1] was found to be 476 nM; in data set [2] it was 89 nM.

As for `NC1CCC(Nc2nc(NC3CCN(C(=O)[C@@H]4C[C@H]4c4ccccc4)CC3)c3ncn(C4CCCC4)c3n2)CC1` (mixture of isomers) [Compound 43, (±)-trans-1-{4-[2-(4-Amino-cyclohexylamino)-9-cyclopentyl-9H-purin-6-ylamino]-piperidin-1-yl}-1-(2-phenyl-cyclopropyl)-methanone dihydrochloride], the IC50 in data set [1] is 293 nM; in data set [2], 51 nM.

Regarding “trans-3-{4-[2-(4-Amino-cyclohexylamino)-9-cyclopentyl-9H-purin-6-ylamino]-piperidine-1-sulfonyl}-benzoic acid methyl ester dihydrochloride [Compound 135]”, the IC50 came out at 62 nM in data set [1]; 3.38 µM in data set [3]; 4.05 µM in data set [4] (MTT assay, mean (SD, n) where given, read-out: PC-3 Prostate (IC50 μM)); 4 nM in data set [5]; 80 nM in data set [2] (read-out: CDK1 IC50, inhibition of cyclin B/CDK 1 enzyme activity).

Regarding `N[C@H]1CC[C@H](Nc2nc(NC3CCN(S(=O)(=O)c4cccs4)CC3)c3ncn(C4CCCC4)c3n2)CC1` [Compound 128, trans-N^2&-(4-Amino-cyclohexyl)-9-cyclopentyl-N^6-[1-(thiophene-2-sulfonyl)-piperidin-4-yl]-9H-purine-2,6-diamine dihydrochloride], the IC50 came out at 5 nM in data set [1] and 9 nM in data set [2].

As for `CC(C)=CC(=O)N1CCC(Nc2nc(N[C@H]3CC[C@H](N)CC3)nc3c2ncn3C2CCCC2)CC1` [Compound 30, trans 1-{4-[2-(4-Amino-cyclohexylamino)-9-cyclopentyl-9#H!-purin-6-ylamino]-piperidin-1-yl}-3-methyl-but-2-en-1-one dihydrochloride], the IC50 in data set [1] stood at 683 nM; in data set [2], 25 nM.

With `N[C@H]1CC[C@H](Nc2nc(NC3CCN(C(=O)/C=C/c4cccc(C(F)(F)F)c4)CC3)c3ncn(C4CCCC4)c3n2)CC1` [Compound 44, trans-(E)-1-{4-[2-(4-Amino-cyclohexylamino)-9-cyclopentyl-9H-purin-6-ylamino]-piperidin-1-yl}-3-(3-trifluoromethyl-phenyl)-propenone dihydrochloride], the IC50 in data set [1] stood at 1490 nM; in data set [2] it was 129 nM.

In data set [1], `COc1cc(COC(=O)N2CCC(Nc3nc(N[C@H]4CC[C@H](N)CC4)nc4c3ncn4C3CCCC3)CC2)c([N+](=O)[O-])cc1OC` [Compound 101, trans-4-[2-(4-Amino-cyclohexylamino)-9-cyclopentyl-9H-purin-6-ylamino]-piperidine-1-carboxylic acid 4,5-dimethoxy-2-nitro-benzyl ester dihydrochloride] showed an IC50 of over 10000 nM.

`N[C@H]1CC[C@H](Nc2nc(NC3CCN(C(=O)/C=C/c4ccccc4)CC3)c3ncn(C4CCCC4)c3n2)CC1` [Compound 62, trans-(E)-1-{4-[2-(4-Amino-cyclohexylamino)-9-cyclopentyl-9H-purin-6-ylamino]-piperidin-1-yl}-3-phenyl-propenone dihydrochloride]: the results for the half-maximal inhibitory concentration (IC50) in data set [1] and in data set [2] were 167 nM and 25 nM, respectively.

In the case of `Cl.Cl.N[C@H]1CC[C@H](Nc2nc(NC3CCN(C(=O)Oc4ccc(F)cc4)CC3)c3ncn(C4CCCC4)c3n2)CC1` [Compound 87, trans-4-[2-(4-Amino-cyclohexylamino)-9-cyclopentyl-9H-purin-6-ylamino]-piperidine-1-carboxylic acid 4-fluoro-phenyl ester dihydrochloride], in data set [4] (Homo sapiens, PC-3, read-out: PC-3 Prostate (IC50 μM)), the IC50 worked out at 0.16 µM. Further, the “Mean Red Blood Cell to Plasma Ratio” value in data set [6] is recorded as 3.4; in data set [7], 8.4. In addition, the “Mean Conc. in plasma” value was found to be 1171.4 ± 153.4 ng/mL in data set [8] (0.083 h); 371.9 ± 35.9 ng/mL in data set [8] (0.25 h); 141.4 ± 9.5 ng/mL in data set [8] (0.5 h); 65.0 ± 14.0 ng/mL in data set [8] (1 h); 19.2 ± 6.0 ng/mL in data set [8] (3 h); 4.3 ± 0.7 ng/mL in data set [8] (6 h). In addition, the “Mean Conc. in plasma” value in data set [8] (8 h) is 3.2 ± 1.6 ng/mL; in data set [8] (24 h), “BLQ^a”.

`C=CCCOC(=O)N1CCC(Nc2nc(N[C@H]3CC[C@H](N)CC3)nc3c2ncn3C2CCCC2)CC1` [Compound 100, trans-4-[2-(4-Amino-cyclohexylamino)-9-cyclopentyl-9H-purin-6-ylamino]-piperidine-1-carboxylic acid but-3-enyl ester dihydrochloride]: the IC50 in data set [1] is over 10000 nM.
